# From PMC6007898, “Methyl dihydrojasmonate and lilial are the constituents with an "off-label" insect repellence in perfumes” (PLoS ONE, 2018)
# Target: T1, CquiOR136/CquiOrco (Culex quinquefasciatus, UniProt A0A0A0QKD4)
# T1 construct: odorant receptor co-expressed with its co-receptor Orco in Xenopus oocytes; with Odorant receptor coreceptor
# T1 sequence (A0A0A0QKD4 1-436): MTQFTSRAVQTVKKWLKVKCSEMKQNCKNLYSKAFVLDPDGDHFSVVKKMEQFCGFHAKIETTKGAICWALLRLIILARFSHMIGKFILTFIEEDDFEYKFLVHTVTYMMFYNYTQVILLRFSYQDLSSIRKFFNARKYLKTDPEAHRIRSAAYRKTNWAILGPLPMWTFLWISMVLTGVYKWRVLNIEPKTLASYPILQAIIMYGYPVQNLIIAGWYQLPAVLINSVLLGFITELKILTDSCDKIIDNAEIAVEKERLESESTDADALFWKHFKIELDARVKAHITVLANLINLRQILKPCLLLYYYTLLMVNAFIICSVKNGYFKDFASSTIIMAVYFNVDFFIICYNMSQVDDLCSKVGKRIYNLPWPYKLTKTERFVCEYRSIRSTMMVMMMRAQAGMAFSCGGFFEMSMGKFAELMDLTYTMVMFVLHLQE
# Assay: two-electrode voltage clamp, Xenopus oocytes
# Format: cell-based
# Conditions: holding potential -80 mV, CquiOrco co-expressed, agonist
# Procedure: All compounds were tested at the same dose
row,SMILES,current at 1 mM
1,"CCCCCC1C(=O)CCC1CC(=O)OC (mixture of isomers) [MDJ, methyl 2-(3-oxo-2-pentylcyclopentyl)acetate]",The currents elicited by methyl dihydrojasmonate were significantly higher than those elicited by lilial
2,CC(C=O)Cc1ccc(C(C)(C)C)cc1 (centres unmarked) [lilial],"both compounds were somewhat strong repellents, they activated CquiOR136 differently"
